Assay results: US20100285959A1, “HERBICIDAL MIXTURES” (priority 2006, published 2010)

What was measured:
giant foxtail (SETFA) [1] = assay: Test 1 field trial, preemergence; type: in vivo, Setaria faberi
Source text: (§1) Corn seeds (hybrid ‘Pioneer 34N43’) were planted in mid spring season, 3.8 cm deep in a silt loam soil having 4.6% organic matter and a pH of 6. Plots were 10.7 m long by 1.5 m wide with rows spaced 76 cm apart. Seeds were spaced 18 cm apart within the rows. The field was managed using conventional tillage practices. […] Results are summarized in Table 1 and are the means of the three replicates. […] Colby's Equation (Colby, S. R. “Calculating Synergistic and Antagonistic Responses of Herbicide Combinations,” Weeds, 15(1), pp 20-22 (1967)) calculates the expected additive effect of herbicidal mixtures, and for two active ingredients is of the form:
(§2) Pa+b=Pa+Pb−(PaPb/100) • wherein Pa+b is the percentage effect of the mixture expected from additive contribution of the individual components, • Pa is the observed percentage effect of the first active ingredient at the same use rate as in the mixture, and • Pb is the observed percentage effect of the second active ingredient at the same use rate as in the mixture.

common blackjack (BIDPI) = assay: Test 11 field trial, preemergence; type: in vivo, Bidens pilosa; set-up: scale not given here; settings: alone or + atrazine 1500 or metolachlor 2500
Source text: Corn seeds (hybrid ‘Pioneer 3041’) were planted in mid spring season, 5 cm deep in a clay soil having 2.6% organic matter and a pH of 5.6. Plots were 8 m long by 1.5 m wide with rows spaced 80 cm apart. Seeds were spaced 15 cm apart within the rows. The field was managed using conventional tillage practices. […] Treatments consisted of Compound 2 or
Goosegrass was not evaluated 16 or 91 days after application.

redroot pigweed (AMARE) = assay: Test 1 field trial, preemergence; type: in vivo, Amaranthus retroflexus
Source text: as §1, §2

common cocklebur (XANST) = assay: Test 10 field trial, preemergence; type: in vivo, Xanthium strumarium ssp. strumarium; settings: 28 DAA
Source text: (§3) Corn seeds (hybrid ‘Pioneer 33P65 RR’) were planted in mid spring season, 2.5 cm deep in a silt loam soil. Plots were 9.1 m long by 3.0 m wide with rows spaced 76 cm apart. The field was managed using conventional tillage practices. […] Results are the means of the three replicates.

[2] = system: common lambsquarters (CHEAL); assay: Test 1 field trial, preemergence; type: in vivo, Chenopodium album
Source text: as §1, §2

velvetleaf (ABUTH) [3] = assay: Test 8 field trial, preemergence; type: in vivo, Abutilon theophrasti
Source text: (§4) Corn seeds (hybrid ‘Pioneer 31G96’) were planted in mid spring season, 3.8 cm deep in a clay loam soil having 2% organic matter and a pH of 6.6. Plots were 6.1 m long by 3.0 m wide with rows spaced 76 cm apart. Seeds were spaced 15 cm apart within the rows. The field was managed using conventional tillage practices. […] A few of the weed species could not be evaluated at every timing. […] Results are the means of the three replicates.

corn (ZEAMD) [4] = assay: Test 5 field trial, postemergence; type: in vivo, Zea mays ssp. indentata; settings: hybrid Pioneer 38H69, corn (Zea mays ssp. indentata), in vivo
Source text: Corn seeds (hybrid ‘Pioneer 38H69’) were planted in mid spring season, 5.1 cm deep in a silty clay loam soil having 3% organic matter and a pH of 6.5. Plots were 9.1 m long by 3.0 m wide with rows spaced 76 cm apart. The field was managed using conventional tillage practices. […] All treatments included a surfactant except glufosinate treatments, both alone and in combination. […] Results are summarized in Table 5 and are the means of the three replicates.

corn (ZEAMD) [5] = assay: Test 1 field trial, preemergence; type: in vivo, Zea mays ssp. indentata; settings: hybrid Pioneer 34N43, corn (Zea mays ssp. indentata), in vivo
Source text: as §1, §2

[6] = system: common lambsquarters (CHEAL); assay: Test 6 field trial, postemergence; type: in vivo, Chenopodium album
Source text: (§5) Corn seeds (hybrid ‘Pioneer 35Y62’) were planted in mid spring season, 3.8 cm deep in a silt loam soil having 4% organic matter and a pH of 5.8. Plots were 10.7 m long by 1.5 m wide with rows spaced 76 cm apart. Seeds were spaced 18 cm apart within the rows. The field was managed using conventional tillage practices. […] All treatments included a surfactant except glufosinate treatments, both alone and in combination. […] Results are summarized in Table 6 and are the means of the three replicates.

giant foxtail (SETFA) [7] = assay: Test 8 field trial, preemergence; type: in vivo, Setaria faberi
Source text: as §4

common ragweed (AMBEL) = assay: Test 10 field trial, preemergence; type: in vivo, Ambrosia artemisiifolia; settings: 28 DAA
Source text: as §3

yellow foxtail (SETLU) = assay: Test 6 field trial, postemergence; type: in vivo, Setaria glauca
Source text: as §5

velvetleaf (ABUTH) [8] = assay: Test 6 field trial, postemergence; type: in vivo, Abutilon theophrasti
Source text: as §5

velvetleaf (ABUTH) [9] = assay: Test 10 field trial, preemergence; type: in vivo, Abutilon theophrasti; settings: 28 DAA
Source text: as §3

[10] = system: ivyleaf morningglory (IPOHE); assay: Test 8 field trial, preemergence; type: in vivo, Ipomoea hederacea
Source text: as §4

[11] = 28 DAA, g a.i./ha: Cpd 2 50, S-Metolachlor 1870
[12] = 28 DAA, g a.i./ha: Cpd 2 100, Atrazine 1680, S-Metolachlor 1870
[13] = 28 DAA, g a.i./ha: Cpd 2 150, S-Metolachlor 1870
[14] = 56 DAA, g a.i./ha: Cpd 2 50, S-Metolachlor 1870
[15] = 56 DAA, g a.i./ha: Cpd 2 100, Atrazine 1680, S-Metolachlor 1870
[16] = 56 DAA, g a.i./ha: Cpd 2 150, S-Metolachlor 1870
[17] = g a.i./ha: Cpd 2 50, S-Metolachlor 1870
[18] = g a.i./ha: Cpd 2 100, Atrazine 1680, S-Metolachlor 1870
[19] = g a.i./ha: Cpd 2 150, S-Metolachlor 1870
[20] = 19 DAA, g a.i./ha: Cpd 2 50, S-Metolachlor 1870
[21] = 19 DAA, g a.i./ha: Cpd 2 100, Atrazine 1680, S-Metolachlor 1870
[22] = 19 DAA, g a.i./ha: Cpd 2 150, S-Metolachlor 1870
[23] = 29 DAA, g a.i./ha: Cpd 2 50, S-Metolachlor 1870
[24] = 29 DAA, g a.i./ha: Cpd 2 100, Atrazine 1680, S-Metolachlor 1870
[25] = 29 DAA, g a.i./ha: Cpd 2 150, S-Metolachlor 1870

COC(=O)c1nc(C2CC2)nc(N)c1Cl [Compound 2, methyl 6-amino-5-chloro-2-cyclopropyl-4-pyrimidinecarboxylate]
SETFA Obs (giant foxtail (SETFA) [1]; [11]): 0 | SETFA Obs (giant foxtail (SETFA) [1]; [12]): 0 | SETFA Obs (giant foxtail (SETFA) [1]; [13]): 0 | SETFA Obs (giant foxtail (SETFA) [1]; [14]): 0 | SETFA Obs (giant foxtail (SETFA) [1]; [15]): 0 | SETFA Obs (giant foxtail (SETFA) [1]; [16]): 0 | BIDPI Obs (common blackjack (BIDPI); 16 DAA, Cpd 2/Cpd 1 at 62 g a.i./ha): 20 | BIDPI Obs (common blackjack (BIDPI); 16 DAA, Cpd 2/Cpd 1 at 125 g a.i./ha): 60 | BIDPI Obs (common blackjack (BIDPI); 30 DAA, Cpd 2/Cpd 1 at 62 g a.i./ha): 20 | BIDPI Obs (common blackjack (BIDPI); 30 DAA, Cpd 2/Cpd 1 at 125 g a.i./ha): 40 | BIDPI Obs (common blackjack (BIDPI); 44 DAA, Cpd 2/Cpd 1 at 62 g a.i./ha): 20 | BIDPI Obs (common blackjack (BIDPI); 44 DAA, Cpd 2/Cpd 1 at 125 g a.i./ha): 60 | BIDPI Obs (common blackjack (BIDPI); 62 DAA, Cpd 2/Cpd 1 at 62 g a.i./ha): 0 | BIDPI Obs (common blackjack (BIDPI); 62 DAA, Cpd 2/Cpd 1 at 125 g a.i./ha): 40 | BIDPI Obs (common blackjack (BIDPI); 91 DAA, Cpd 2/Cpd 1 at 62 g a.i./ha): 0 | BIDPI Obs (common blackjack (BIDPI); 91 DAA, Cpd 2/Cpd 1 at 125 g a.i./ha): 40 | AMARE Obs (redroot pigweed (AMARE); [11]): 0 | AMARE Obs (redroot pigweed (AMARE); [12]): 7 | AMARE Obs (redroot pigweed (AMARE); [13]): 58 | AMARE Obs (redroot pigweed (AMARE); [14]): 7 | AMARE Obs (redroot pigweed (AMARE); [15]): 55 | AMARE Obs (redroot pigweed (AMARE); [16]): 100 | XANST Obs (common cocklebur (XANST); [17]): 10% | XANST Obs (common cocklebur (XANST); [18]): 7% | XANST Obs (common cocklebur (XANST); [19]): 27% | CHEAL Obs [2, 11]: 0 | CHEAL Obs [2, 12]: 7 | CHEAL Obs [2, 13]: 7 | CHEAL Obs [2, 14]: 7 | CHEAL Obs [2, 15]: 55 | CHEAL Obs [2, 16]: 100 | ABUTH Obs (velvetleaf (ABUTH) [3]; [20]): 28% | ABUTH Obs (velvetleaf (ABUTH) [3]; [21]): 45% | ABUTH Obs (velvetleaf (ABUTH) [3]; [22]): 58% | ABUTH Obs (velvetleaf (ABUTH) [3]; [23]): 43% | ABUTH Obs (velvetleaf (ABUTH) [3]; [24]): 68% | ABUTH Obs (velvetleaf (ABUTH) [3]; [25]): 90% | ABUTH Obs (velvetleaf (ABUTH) [3]; [14]): 18% | ABUTH Obs (velvetleaf (ABUTH) [3]; [15]): 60% | ABUTH Obs (velvetleaf (ABUTH) [3]; [16]): 85% | ZEAMD Obs (corn (ZEAMD) [4]; 16 days after application): 0% | ZEAMD Obs (corn (ZEAMD) [4]; 31 days after application): 0% | ZEAMD Obs (corn (ZEAMD) [5]; 28 days after application): 0 | ZEAMD Obs (corn (ZEAMD) [5]; 56 days after application): 0 | CHEAL Obs ([6]; 14 DAA, 30 g a.i./ha): 100% | CHEAL Obs ([6]; 14 DAA, 60 g a.i./ha): 100% | CHEAL Obs ([6]; 28 DAA, 30 g a.i./ha): 100% | CHEAL Obs ([6]; 28 DAA, 60 g a.i./ha): 100% | SETFA Obs (giant foxtail (SETFA) [7]; [20]): 33% | SETFA Obs (giant foxtail (SETFA) [7]; [21]): 40% | SETFA Obs (giant foxtail (SETFA) [7]; [22]): 43% | SETFA Obs (giant foxtail (SETFA) [7]; [23]): 32% | SETFA Obs (giant foxtail (SETFA) [7]; [24]): 42% | SETFA Obs (giant foxtail (SETFA) [7]; [25]): 47% | SETFA Obs (giant foxtail (SETFA) [7]; [14]): 8% | SETFA Obs (giant foxtail (SETFA) [7]; [15]): 7% | SETFA Obs (giant foxtail (SETFA) [7]; [16]): 17% | AMBEL Obs (common ragweed (AMBEL); [17]): 5% | AMBEL Obs (common ragweed (AMBEL); [18]): 5% | AMBEL Obs (common ragweed (AMBEL); [19]): 20% | SETLU Obs (yellow foxtail (SETLU); 14 DAA, 30 g a.i./ha): 0% | SETLU Obs (yellow foxtail (SETLU); 14 DAA, 60 g a.i./ha): 0% | SETLU Obs (yellow foxtail (SETLU); 28 DAA, 30 g a.i./ha): 0% | SETLU Obs (yellow foxtail (SETLU); 28 DAA, 60 g a.i./ha): 0% | ABUTH Obs (velvetleaf (ABUTH) [8]; 14 DAA, 30 g a.i./ha): 0% | ABUTH Obs (velvetleaf (ABUTH) [8]; 14 DAA, 60 g a.i./ha): 0% | ABUTH Obs (velvetleaf (ABUTH) [8]; 28 DAA, 30 g a.i./ha): 0% | ABUTH Obs (velvetleaf (ABUTH) [8]; 28 DAA, 60 g a.i./ha): 0% | ABUTH Obs (velvetleaf (ABUTH) [9]; [17]): 7% | ABUTH Obs (velvetleaf (ABUTH) [9]; [18]): 7% | ABUTH Obs (velvetleaf (ABUTH) [9]; [19]): 13% | IPOHE Obs [10, 20]: 58% | IPOHE Obs [10, 21]: 78% | IPOHE Obs [10, 22]: 83% | IPOHE Obs [10, 23]: 72% | IPOHE Obs [10, 24]: 97% | IPOHE Obs [10, 25]: 96% | IPOHE Obs [10, 14]: 82% | IPOHE Obs [10, 15]: 100% | IPOHE Obs [10, 16]: 100%
